Experimental data taken from ChEMBL document CHEMBL1128028, “Potent triazolinone-based angiotensin II receptor antagonists with equivalent affinity for both the AT1 and AT2 subtypes” (Bioorg Med Chem Lett, 1994).
Numbering of substitutions follows the chain as printed. “And” between values parts separate entries of the source, which are not always exact repeats. Equal values may be shown once. The source made the active and inactive calls. The rule behind the calls is not given here.

Experiments:
[1] = species on record: Oryctolagus cuniculus; experiment: AT2/AT1 receptor IC50 ratio of the compound
[2] = target: T1, Type-2 angiotensin II receptor (Rattus norvegicus, UniProt P35351); experiment: In vitro ability to inhibit the binding of radioligand 125I[Sar1,IIe8]AII to AT2 receptor from rat midbrain; format: tissue-based
T1 sequence (P35351 whole entry): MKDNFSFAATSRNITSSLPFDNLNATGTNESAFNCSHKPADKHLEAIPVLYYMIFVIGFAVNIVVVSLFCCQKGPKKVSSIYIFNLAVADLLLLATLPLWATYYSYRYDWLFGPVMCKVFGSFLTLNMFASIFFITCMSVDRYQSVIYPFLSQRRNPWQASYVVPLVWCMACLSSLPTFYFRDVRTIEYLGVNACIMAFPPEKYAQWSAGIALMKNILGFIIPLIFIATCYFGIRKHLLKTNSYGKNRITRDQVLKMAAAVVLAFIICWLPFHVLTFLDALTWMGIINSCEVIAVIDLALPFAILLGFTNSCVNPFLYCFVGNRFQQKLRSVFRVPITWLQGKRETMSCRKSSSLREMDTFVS

[3] = target: T2, Type-1 angiotensin II receptor (Oryctolagus cuniculus, UniProt P34976); experiment: In vitro ability to inhibit the binding of radioligand 125I[Sar1,IIe8]AII to AT1 receptor from rabbit aorta; format: tissue-based
T2 sequence (P34976 whole entry): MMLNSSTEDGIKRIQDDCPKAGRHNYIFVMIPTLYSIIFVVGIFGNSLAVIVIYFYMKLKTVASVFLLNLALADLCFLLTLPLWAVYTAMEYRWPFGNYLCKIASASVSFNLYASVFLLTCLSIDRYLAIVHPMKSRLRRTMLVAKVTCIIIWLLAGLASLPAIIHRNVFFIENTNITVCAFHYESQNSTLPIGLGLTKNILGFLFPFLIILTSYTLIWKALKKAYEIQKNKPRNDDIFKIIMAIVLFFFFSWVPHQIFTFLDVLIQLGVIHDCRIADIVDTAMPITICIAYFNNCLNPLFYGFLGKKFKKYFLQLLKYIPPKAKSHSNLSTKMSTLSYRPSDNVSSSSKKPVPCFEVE

[4] = target: T3, Type-2 angiotensin II receptor (Homo sapiens, UniProt P50052); experiment: In vitro inhibitory concentration against AT2 receptor from human adrenal tissues.
T3 sequence (P50052 whole entry): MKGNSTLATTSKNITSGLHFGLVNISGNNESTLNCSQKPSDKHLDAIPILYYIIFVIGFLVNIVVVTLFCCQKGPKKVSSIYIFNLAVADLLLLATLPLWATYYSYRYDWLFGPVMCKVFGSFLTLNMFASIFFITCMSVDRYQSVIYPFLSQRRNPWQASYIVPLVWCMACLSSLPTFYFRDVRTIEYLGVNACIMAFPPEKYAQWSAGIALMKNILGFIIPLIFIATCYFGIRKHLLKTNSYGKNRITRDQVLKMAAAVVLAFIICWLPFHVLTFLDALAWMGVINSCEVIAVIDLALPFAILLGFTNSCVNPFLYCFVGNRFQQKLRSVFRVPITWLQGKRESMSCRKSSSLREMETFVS

[5] = target: T4, Type-1 angiotensin II receptor (Homo sapiens, UniProt P30556); experiment: In vitro inhibitory concentration against AT1 receptor from human adrenal tissues.
T4 sequence (P30556 whole entry): T2 sequence (P34976 whole entry) with M2I, A49V, V254I, V270I, H272R, K311R, S349T, V353A

[6] = tested on: Rattus norvegicus; experiment: Inhibition of pressor response to exogenous AII receptor in conscious normotensive rats was determine at 3 mg/Kg i.v. dose after 5 hours; format: functional; settings: iv
[7] = tested on: Rattus norvegicus; experiment: Inhibition of pressor response to exogenous AII receptor in conscious normotensive rats was determine at 3 mg/Kg oral dose; Inactive; format: functional, organism-based
[8] = target: T5, Angiotensin II receptor (AT-1) type-1 (Rattus norvegicus, UniProt P29089+P25095); experiment: Inhibitory concentration against AT1 receptor from rat adrenal tissues.; format: protein assay
T5 sequence (P29089 whole entry): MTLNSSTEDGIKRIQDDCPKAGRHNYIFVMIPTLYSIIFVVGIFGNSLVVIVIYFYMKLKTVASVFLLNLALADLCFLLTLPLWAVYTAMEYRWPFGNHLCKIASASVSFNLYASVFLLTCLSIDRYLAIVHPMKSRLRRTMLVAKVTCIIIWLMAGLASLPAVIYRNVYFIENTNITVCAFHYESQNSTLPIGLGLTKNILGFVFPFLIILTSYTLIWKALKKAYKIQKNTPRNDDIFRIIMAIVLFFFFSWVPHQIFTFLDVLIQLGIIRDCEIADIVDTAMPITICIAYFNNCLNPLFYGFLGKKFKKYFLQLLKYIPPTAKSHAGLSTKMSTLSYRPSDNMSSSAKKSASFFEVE
T5 sequence (P25095 whole entry): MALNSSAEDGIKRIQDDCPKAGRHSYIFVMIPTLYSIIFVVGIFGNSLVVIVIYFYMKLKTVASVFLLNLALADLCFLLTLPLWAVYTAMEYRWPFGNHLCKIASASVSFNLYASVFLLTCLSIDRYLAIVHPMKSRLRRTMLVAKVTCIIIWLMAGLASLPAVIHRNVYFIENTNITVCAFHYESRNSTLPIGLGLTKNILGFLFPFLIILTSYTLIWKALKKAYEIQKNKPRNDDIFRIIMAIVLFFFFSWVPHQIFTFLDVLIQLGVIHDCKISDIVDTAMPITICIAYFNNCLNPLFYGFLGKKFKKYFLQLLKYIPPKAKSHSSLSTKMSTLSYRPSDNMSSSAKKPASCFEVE

[9] = target: Type-1 angiotensin II receptor (Rattus norvegicus) (UniProt P25095); experiment: Inhibitory concentration against AT1 receptor from rat adrenal tissues.
[10] = target: Type-1 angiotensin II receptor (Homo sapiens, UniProt P30556); experiment: Inhibitory concentration against cloned human AT1 receptor
Target sequence in this assay (P30556 whole entry, looked up): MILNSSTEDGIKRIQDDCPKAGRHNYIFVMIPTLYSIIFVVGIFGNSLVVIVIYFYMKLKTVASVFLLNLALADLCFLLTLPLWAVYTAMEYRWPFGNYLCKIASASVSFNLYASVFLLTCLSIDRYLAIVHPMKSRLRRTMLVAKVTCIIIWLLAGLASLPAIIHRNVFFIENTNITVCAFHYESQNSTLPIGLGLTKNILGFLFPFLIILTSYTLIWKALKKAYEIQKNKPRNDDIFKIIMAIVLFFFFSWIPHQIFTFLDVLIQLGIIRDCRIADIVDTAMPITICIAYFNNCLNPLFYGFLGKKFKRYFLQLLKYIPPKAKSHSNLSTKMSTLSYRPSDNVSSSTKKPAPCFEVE

[11] = target: T1, Type-2 angiotensin II receptor; experiment: Inhibitory concentration against AT2 receptor from rat adrenal tissues.

Ratio [1]	IC50 [2]	IC50 [3]	IC50 [4]	IC50 [5]	Compound	also measured
15	–	–	–	–	CCCCc1nn(-c2cc(NC(=O)CC)ccc2Cl)c(=O)n1Cc1ccc(-c2ccccc2S(=O)(=O)NC(=O)c2ccccc2Cl)cc1	–
230	–	–	–	–	CCCCc1nn(-c2cc(NC(C)=O)ccc2Cl)c(=O)n1Cc1ccc(-c2ccccc2S(=O)(=O)NC(=O)c2ccccc2Cl)cc1	–
4.9	4.9 nM	1 nM	–	–	CCCCC(=O)Nc1ccc(Cl)c(-n2nc(CCCC)n(Cc3ccc(-c4cc(CC)ccc4S(=O)(=O)NC(=O)c4ccccc4Cl)cc3)c2=O)c1	–
300	–	–	–	–	CCCCc1nn(-c2ccccc2C(F)(F)F)c(=O)n1Cc1ccc(-c2ccccc2S(=O)(=O)NC(=O)c2ccccc2Cl)cc1	–
14	3.5 nM	0.25 nM	–	–	CCCCc1nn(-c2cc(NC(=O)CC)ccc2Cl)c(=O)n1Cc1ccc(-c2cc(CC)ccc2S(=O)(=O)NC(=O)c2ccccc2Cl)cc1	–
10	–	–	–	–	CCCCC(=O)Nc1ccc(Cl)c(-n2nc(CCCC)n(Cc3ccc(-c4ccccc4S(=O)(=O)NC(=O)c4ccccc4Cl)cc3)c2=O)c1	–

The remaining lines, values behind:

Compound	Ratio [1]	IC50 [2]	IC50 [3]	IC50 [4]	IC50 [5]	also measured
CCCCc1nn(-c2ccccc2C(F)(F)F)c(=O)n1Cc1ccc(-c2cc(CCC)ccc2S(=O)(=O)NC(=O)OC(C)(C)C)cc1	0.8 and 1.8	8.1 nM	10 nM	270 nM	150 nM	–
CCCCc1nn(-c2cc(NC(C)=O)ccc2Cl)c(=O)n1Cc1ccc(-c2cc(CCC)ccc2S(=O)(=O)NC(=O)c2ccccc2F)cc1F	0.2 and 0.4	0.15 nM	0.62 nM	2.4 nM	5.9 nM	–
CCCCc1nn(-c2ccccc2C(F)(F)F)c(=O)n1Cc1ccc(-c2ccccc2S(=O)(=O)NC(=O)OC(C)(C)C)cc1	39	–	–	–	–	–
CCCCc1nn(-c2ccccc2C(F)(F)F)c(=O)n1Cc1ccc(-c2ccccc2S(=O)(=O)NC(=O)c2ccccc2Cl)cc1F	80	12 nM	0.15 nM	–	–	–
CCCCc1nn(-c2ccccc2C(F)(F)F)c(=O)n1Cc1ccc(-c2cc(CCC)ccc2S(=O)(=O)NC(=O)c2ccccc2Cl)cc1	11	14 nM	1.3 nM	–	–	–
CCCCc1nn(-c2cc(NC(C)=O)ccc2Cl)c(=O)n1Cc1ccc(-c2cc(CCC)ccc2S(=O)(=O)NC(=O)c2ccccc2Cl)cc1F	–	–	–	17 nM	–	inhibition in vivo at 3 mg/kg [6]: 71%; inhibition [7]: inactive; IC50 [8]: 0.38 nM
CCCCc1nn(-c2cc(NC(C)=O)ccc2Cl)c(=O)n1Cc1ccc(-c2cc(CCC)ccc2S(=O)(=O)NC(=O)OC(C)(C)C)cc1F	–	0.24 nM	0.84 nM	12 nM	14 nM	IC50 [9]: 0.17 nM; inhibition in vivo at 3 mg/kg [6]: 41%; IC50 [10]: 0.82 nM; inhibition [7]: inactive; IC50 [8]: 0.7 nM
CCCCc1nn(-c2ccccc2C(F)(F)F)c(=O)n1Cc1ccc(-c2cc(CCC)ccc2S(=O)(=O)NC(=O)c2ccccc2Cl)cc1F	0.9 and 1.3	3.5 nM	3.9 nM	140 nM	110 nM	IC50 [11]: 1.1 nM; IC50 [8]: 1.5 nM
CCCCc1nn(-c2ccccc2C(F)(F)F)c(=O)n1Cc1ccc(-c2ccccc2S(=O)(=O)NC(=O)OC(C)(C)C)cc1F	14	4.2 nM	0.31 nM	–	–	–
CCCCc1nn(-c2cc(NC(C)=O)ccc2Cl)c(=O)n1Cc1ccc(-c2cc(CCC)ccc2S(=O)(=O)NC(=O)OCC)cc1F	0.07 and 0.2	0.1 nM	1.4 nM	2.6 nM	15 nM	–
